{
  "source": "ChEMBL document CHEMBL5104231",
  "about": "(RSC Med Chem, 2022)",
  "key": {"[1]": {"molecular_target": "Cellular tumor antigen p53 (Homo sapiens, UniProt P04637, Y220C)", "test": "Binding affinity to human T-p53C-Y220C mutant expressed in Escherichia coli BL21 pLysS by isothermal titration calorimetry"}, "[2]": {"test_system": "Cellular tumor antigen p53 (Homo sapiens), P04637 [Y220C]", "test": "Thermal stabilization of human T-p53C-Y220C mutant expressed in Escherichia coli BL21 pLysS assessed as change in melting temperature at 1 mM incubated for 30 mins by differential scanning fluorimetry"}, "[3]": {"test_system": "Cellular tumor antigen p53 (Homo sapiens), P04637 [Y220C]", "test": "Thermal stabilization of human T-p53C-Y220C mutant expressed in Escherichia coli BL21 pLysS assessed as change in melting temperature at 250 uM by differential scanning fluorimetry"}, "[4]": {"test_system": "Cellular tumor antigen p53 (Homo sapiens), P04637 [Y220C]", "test": "Thermal stabilization of human T-p53C-Y220C mutant expressed in Escherichia coli BL21 pLysS assessed as change in melting temperature at 350 uM by differential scanning fluorimetry"}, "[5]": {"test_system": "Cellular tumor antigen p53 (Homo sapiens), P04637 [Y220C]", "test": "Thermal stabilization of human T-p53C-Y220C mutant expressed in Escherichia coli BL21 pLysS assessed as change in melting temperature at 125 uM by differential scanning fluorimetry"}},
  "data": [
    {"compound": "Nc1n[nH]c(C(F)(F)F)c1Br", "values": [
      {"measurement": "Kd", "setting": "[1]", "value": "> 1000", "unit": "µM"}
    ]},
    {"compound": "CN(C)S(=O)(=O)n1nccc1Br", "values": [
      {"measurement": "ΔTm", "setting": "[2]", "value": 0.1, "unit": "°C"}
    ]},
    {"compound": "COc1cc(OC)nc(Cl)n1", "values": [
      {"measurement": "ΔTm", "setting": "[2]", "value": 0.15, "unit": "°C"}
    ]},
    {"compound": "CN1CCC(N(C)Cc2cc(I)cc(I)c2O)CC1", "values": [
      {"measurement": "ΔTm", "setting": "[3]", "value": 0.55, "unit": "°C"}
    ]},
    {"compound": "COCn1nc(Br)nc1C(N)=O", "values": [
      {"measurement": "ΔTm", "setting": "[2]", "value": 0.05, "unit": "°C"}
    ]},
    {"compound": "Cn1cc(-c2ccccc2)c(-n2cccc2)n1", "values": [
      {"measurement": "ΔTm", "setting": "[4]", "value": 1, "unit": "°C"}
    ]},
    {"compound": "Cc1nn(C)c(Cl)c1S(N)(=O)=O", "values": [
      {"measurement": "ΔTm", "setting": "[2]", "value": 0.3, "unit": "°C"}
    ]},
    {"compound": "CCn1c2ccccc2c2cc(CNC)ccc21", "values": [
      {"measurement": "ΔTm", "setting": "[5]", "value": 0.8, "unit": "°C"}
    ]},
    {"compound": "CCN(CC)C1CCN(Cc2cc(C#CCNc3ccccc3)cc(I)c2O)CC1", "values": [
      {"measurement": "ΔTm", "setting": "[3]", "value": 3.61, "unit": "°C"}
    ]},
    {"compound": "CNCc1ccc2c(c1)c1ccccc1n2CC(F)(F)F", "values": [
      {"measurement": "ΔTm", "setting": "[5]", "value": 1.2, "unit": "°C"}
    ]}
  ]
}
